In patent publication US20210047278A1, “E3 UBIQUITIN LIGASE AGONISTS, PHARMACEUTICAL COMPOSITIONS INCLUDING THE E3 UBIQUITIN LIGASE AGONISTS, RELATED METHODS OF USE” (FRED HUTCHINSON CANCER RESEARCH CENTER, priority 2018, published 2021):
Read-outs that look alike come from different tables or passages of the source.

Assays:
Type in all cases: binding
FBW7^ARG (RLFBW7) alone = biological target: T1, FBW7^ARG (RLFBW7) alone (Homo sapiens, UniProt Q969H0, R505L); assay: Counterscreen 1 ALPHAscreen with FBW7^ARG alone (CSRUN1/DCSRUN1); conditions: dose-response counterscreen; for Emax: read-out: RLFBW7 ACT DCSRUN1 Averaged Max % Response
T1 construct: GST (TEV site and flexible linker) (N, cleaved yes); made in house; host or cells: SF9 insect cells (baculovirus)
T1 sequence (Q969H0 64-707 R505L): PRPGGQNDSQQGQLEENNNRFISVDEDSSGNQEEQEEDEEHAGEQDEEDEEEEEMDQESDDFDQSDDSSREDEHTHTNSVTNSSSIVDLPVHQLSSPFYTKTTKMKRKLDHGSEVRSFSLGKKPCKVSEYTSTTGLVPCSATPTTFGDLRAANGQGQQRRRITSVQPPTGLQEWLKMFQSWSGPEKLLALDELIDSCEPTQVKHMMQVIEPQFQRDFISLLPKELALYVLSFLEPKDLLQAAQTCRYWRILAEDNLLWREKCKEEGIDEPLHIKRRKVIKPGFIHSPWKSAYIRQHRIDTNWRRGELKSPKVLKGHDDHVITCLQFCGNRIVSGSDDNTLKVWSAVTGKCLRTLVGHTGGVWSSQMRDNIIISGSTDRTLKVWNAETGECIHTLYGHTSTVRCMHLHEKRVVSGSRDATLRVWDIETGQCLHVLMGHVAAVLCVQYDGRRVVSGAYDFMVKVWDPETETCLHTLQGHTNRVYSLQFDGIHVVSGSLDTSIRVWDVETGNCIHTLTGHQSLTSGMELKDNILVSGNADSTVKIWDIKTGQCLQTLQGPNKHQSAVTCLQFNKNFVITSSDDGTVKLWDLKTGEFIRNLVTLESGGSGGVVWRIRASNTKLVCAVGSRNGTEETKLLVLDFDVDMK
T1 sequence (P63208 2-163 partner): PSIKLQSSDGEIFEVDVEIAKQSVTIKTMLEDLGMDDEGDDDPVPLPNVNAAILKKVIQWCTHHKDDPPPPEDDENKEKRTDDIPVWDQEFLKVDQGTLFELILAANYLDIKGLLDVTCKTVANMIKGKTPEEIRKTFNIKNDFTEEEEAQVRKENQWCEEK
Description: (§1) Studies in 384-well format were performed using the ENVISION system. Reagent concentrations (see FIG. 6A), order of addition, pH (see FIG. 6B), and reducing agent were altered with the goal of enhancing the dynamic range between wt-FBW7 (the positive control) and FBW7^ARG (FIG. 6 and not shown). Wt-FBW7 produced a signal 100× greater with phosphorylated cyclin E degron peptide compared with unphosphorylated, which represents the assay's maximum range (FIG. 6C). […] This assay thus detects the residual affinity of the FBW7^ARG-substrate interaction, which, as predicted, is stronger than wt-FBW7 protein with unphosphorylated cyclin E peptide. Concurrent with this primary assay, counter ALPHAscreens were developed which omitted either FBW7 or peptide (to eliminate hits that are general ALPHAscreen agonists), or used an irrelevant phosphopeptide (to eliminate compounds that simply augment binding to phosphopeptides). […]
(§2) The 77 hits were subjected to a dose-response assay in which each compound was tested in triplicate in a 10 point 3-fold dilutional series, to a maximum concentration of approximately 87 μM. Three screens were performed, using FBW7^ARG+pCycE (DRUN), FBW7^ARG (DCSRUN1), or pCycE alone (DCSRUN2). See TABLES 2, 3, and 4, respectively, and FIG. 10A. All of the assays performed extremely well, and threshold of 10% activation (relative to WT-FBW7+pCycE) was set as positive. […] Many hits fell into shared structure cluster ID groups, reinforcing the idea that they function as specific agonists (see below and TABLE 5).

pCycE alone = assay: Counterscreen 2 ALPHAscreen with cyclin E phosphopeptide alone (CSRUN2/DCSRUN2); conditions: for CyCEP ACT DCSRUN2 Averaged Max % Response: activation relative to WT-FBW7+pCycE, averaged maximum; for EC50: dose-response, triplicate, 10 point 3-fold dilutional series, read-out: CyCEP ACT DCSRUN2 Final EC50
Description: as §1, §2

FBW7^ARG+pCycE = biological target: T2, FBW7^ARG+pCycE (Homo sapiens, UniProt Q969H0, R505L); assay: FBW7^ARG-cyclin E agonist ALPHAscreen (primary PRUN, confirmation CRUN1, dose-response DRUN); conditions: for EC50 / Emax: DRUN dose-response; for Emax: relative to WT-FBW7+pCycE, read-out: FBW7 ACT Averaged Max % Response
T2 construct: GST (TEV site and flexible linker) (N, cleaved yes); made in house; host or cells: SF9 insect cells (baculovirus)
T2 sequence (Q969H0 64-707 R505L): as the sequence (Q969H0 64-707 R505L) above
T2 sequence (P63208 2-163 partner): as the sequence (P63208 2-163 partner) above
From the text: FBW7^ARG refers to a class of loss-of-function mutations of the of FBW7 ubiquitin ligase that target a key phosphate-binding arginine residue in the FBW7 substrate-binding domain. These mutations are commonly found in human cancers and promote tumorigenesis by impairing the interactions between FBW7 and its substrates, such as cyclin E and Myc. Described herein is a high throughput screen (HTS) to identify agonists, such as small molecules, that augment FBW7^ARG-substrate binding. In an embodiment, the HTS is based on the Amplified Luminescent Proximity Homogenous Assay (ALPHAscreen) because it detects protein-protein interactions with a large dynamic range. ALPHAscreen is a bead-based proximity assay wherein donor beads contain a photosensitizer, phthalocyanine, and acceptor beads contain thioxene, anthracene and rubrenein in sufficient quantities to generate a chemiluminescence/fluorescence reaction (FIG. 4A). Upon excitation with excitation illumination, such as light having a wavelength of 680 nm, of the donor beads, phthalocyanine converts ambient oxygen to singlet oxygen, which can diffuse approximately 200 nm within its 4-microsecond half-life. If an acceptor bead is in close proximity to an excited donor bead, singlet oxygen transfers its energy to the acceptor, resulting in emitted light at a broad bandwidth of −520-620 nm. The HTS-compatible FBW7/cyclin E ALPHAscreen assay described herein uses streptavidin coupled donor beads and Ni-chelate acceptor beads. In this assay, biotinylated cyclin E phosphopeptide and the His-tagged FBW7 mutant protein have high affinity for the donor and acceptor beads, respectively (FIG. 4B). A small molecule that is able to bridge the binding sites of the peptide and the mutant protein (or induce a conformational change that increases affinity of the protein for the peptide) will bring the donor and acceptor beads in close proximity to each other, resulting in an ALPHA signal. As designed, this assay format is a very sensitive, non-radioactive, homogenous “mix-and-read” format that is HT compatible in 384 and 1536 well formats.
In the 384-well screening assay, 10 uL of acceptor beads with 25 nM of the FBW7^ARG (RLFBW7) are dispensed to test wells; acceptor beads with 25 nM of the wt-FBW7 protein (WTFBW7) are dispensed to control wells. Test compounds are then added by pintool transfer and the mixture is incubated for 30 minutes. An additional 10 uL of donor beads with 25 nM cyclin E phosphopeptide is then added to all wells and the plate is incubated for 4 hours before the ALPHA signal is measured.
In preparation for large-scale screening, the assay was miniaturized to a 1536-well format. The miniaturized screen performed outstandingly in all respects. The screen was enhanced with respect to several parameters and assayed its performance using mutant FBW7 and wt-FBW7, as well as non-specific assay agonists. […] For example, the following Z′-scores/FBW7 concentrations were obtained: 6.25 nM/Z′=0.62, 12.5 nm/Z′=0.85, 25.0 nM/Z′=0.84.
1. Add 2.5 uL of RLFBW7/cycE˜P/Ni beads: Final [25 nM/25 nM/10 ug/ml].
2. Add 2.5 uL of WTFBW7/cycE˜P/Ni beads: Final [25 nM/25 nM/10 ug/ml].
4. Add 2.5 uL of SA beads to all wells Final [10 ug/ml],
5. Add 30 nL of compounds,
6. Read ALPHAscreen on Envision
The large-scale FBW7 agonist ALPHAscreen was completed using FBW7^ARG and a phosphorylated cyclin E (pCycE) degron peptide. Wt-FBW7+pCycE-peptide was the “high control”, and Wt-FBW7+unphosph. CycE peptide was the “low control”. The screen was performed on the 645,000-compound Scripps Diversity Library using 1536-well format and drug concentrations of 26.1 μM. An algorithm aided hit identification based on the average percent activation for all compounds and their standard deviation.
A confirmation assay of all 853 compounds in triplicate using a single concentration (26.1 μM). […]

[1] = raw curve fit, read-out: RLFBW7 ACT DCSRUN1 EC50 Curve Fit Raw
[2] = read-out: RLFBW7 ACT DCSRUN1 Final EC50
[3] = raw curve fit, read-out: FBW7 ACT EC50 Curve Fit Raw, Molar
[4] = triplicate, 10 point 3-fold dilution, max approx. 87 μM, read-out: FBW7 ACT Final EC50, Molar
[5] = confirmation assay, triplicate, single concentration 26.1 μM, read-out: FBW7 ACT CRUN1 Avg % Response and Stdev
[6] = primary screen, 1536-well, 26.1 μM, FBW7^ARG + pCycE degron peptide, high control wt-FBW7+pCycE, read-out: FBW7 ACT PRUN % Response

Structure (SMILES)	EC50 (FBW7^ARG (RLFBW7) alone; [1]) [µM]	Emax (FBW7^ARG (RLFBW7) alone) [%]	EC50 (FBW7^ARG (RLFBW7) alone; [2]) [µM]	CyCEP ACT DCSRUN2 Averaged Max % Response (pCycE alone) [%]	EC50 (pCycE alone) [µM]	EC50 (FBW7^ARG+pCycE; [3]) [µM]	Emax (FBW7^ARG+pCycE) [%]	EC50 (FBW7^ARG+pCycE; [4]) [µM]	activation at 26.1 µM (FBW7^ARG+pCycE; [5]) [%]	activation at 26.1 µM (FBW7^ARG+pCycE; [6]) [%]
CC1=C(C(=O)OCCc2ccccc2)C(c2ccc(Cl)cc2Cl)C2=C(CC(C)(C)CC2=O)N1 (stereo not drawn) [SR-01000419178-1]	0.0785	3.8	> 45.8	0.09	> 45.8	16.4	9.01	> 45.8	4.54 ± 0.53	2.09
Cc1cccc(N2CCN(C(=O)CCc3nc(C4=CCN(C)CC4)no3)CC2C)c1 (stereo not drawn) [SR-01000140019-1]		-0.213		0.31	> 65.3		10.2		3.38 ± 0.3	4.08
CCC(c1nnnn1CCC(C)C)N1CCN(C(=O)c2ccco2)CC1 (stereo not drawn) [SR-01000340422-1]	2.3	0.87	> 65.3	0.18	> 65.3	24	6.45	> 65.3	2.97 ± 0.23	2.16
CCC(C)OC(=O)C1=C(C)NC2=C(C(=O)CC(c3ccccc3)C2)C1c1cccc2ccccc12 (stereo not drawn) [SR-01000423185-1]		8.99	> 47.6	11.24	> 47.6	15.9	13	> 47.6	5.54 ± 0.29	2.18
CCS(=O)(=O)NCC(c1cccs1)S(=O)(=O)c1ccc(C)cc1 (stereo not drawn) [SR-01000023127-1]	0.0177	0.24	> 66.4	0.21	> 66.4	7.6	14.7	> 66.4	2.18 ± 0.61	3.19
CCN1C(=O)c2cccc3c(N4CCCC4)ccc(c23)C1=O [SR-01000221568-1]	14.2	8.96	> 65.3	0.35	> 65.3	17.4	16.3	> 65.3	3.1 ± 0.38	2.07
Cc1cc(OCC(=O)Nc2ccc3oc(-c4ccccc4Br)nc3c2)cc(C)c1Cl [SR-01000421466-1]		0.32	> 43.2	0.02	> 43.2	0.0412	8.15	> 43.2	3.2 ± 0.75	2.01
O=C(Cc1ccc(Br)cc1)N1CCC(c2nc(O)c3cnccc3n2)C1.O=C(O)C(F)(F)F (stereo not drawn) [SR-00000005455-1]	0.0129	0.43	> 65.3	0.31	> 65.3	30.2	24.7	> 65.3	4.65 ± 0.38	2.32
COc1ccc(SCC(=O)NNC(=S)Nc2ccccc2)cc1 [SR-01000526835-1]	7.5	2.56	> 56.6	2.80	> 56.6	7.3	10.1	> 56.6	2.1 ± 0.29	2.07
CCOc1ccc(Br)cc1C1C2=C(CCCC2=O)N(CC(=O)O)C2=C1C(=O)CCC2 [SR-01000476712-1]	0.0052	1.87	> 43.6	2.30	> 43.6	0.0054	8.52	> 43.6	3.84 ± 1.06	1.93
CC(=O)NCC(c1cccs1)S(=O)(=O)c1ccc(C)cc1 (stereo not drawn) [SR-01000023077-1]	33.3	0.39	> 64.6	0.18	> 64.6	15.3	18.4	> 64.6	2.46 ± 0.31	1.85
COc1ccccc1-c1ccc(=O)n(CC(=O)Nc2ccc(C(=O)N3CCCC3)cc2)n1 [SR-01000332536-1]	6.3	0.2	> 65.3	0.12	> 65.3	19.1	18	> 65.3	4.43 ± 0.25	4.09
O=C(NCCCN1CCc2ccccc2C1)Nc1ccc(Br)cc1 [SR-01000123578-1]	0.255	-0.0757	> 65.3	0.28	> 65.3	0.255	6.18	> 65.3	2.32 ± 0.39	3.06
CC(=O)Nc1ccc(NC(=O)Cn2cnc3c(cnn3C(C)(C)C)c2=O)cc1 [SR-01000137195-1]	0.0182	0.23	> 65.3	0.27	> 65.3	13.4	15.2	> 65.3	4.47 ± 0.6	4.02
Cc1ccc(-c2nnc(N3CCN(C(=O)c4ccco4)CC3)c3ccccc23)cc1 [SR-01000505133-1]	0.008	2.77	> 54	1.77	> 54	19.6	16.5	> 54	2.31 ± 0.38	2.28
